Key:
[1] = tested on: A549-ACE2; assay: phospholipidosis EC50; higher = less potent phospholipidosis inducer
[2] = tested on: U2OS; assay: cell viability relative to DMSO; higher = less toxic; details: 72 h
[3] = tested on: Vero E6; assay: as above; details: 72 h
[4] = tested on: Calu-3; assay: as above; details: 72 h
[5] = tested on: Caco-2; assay: as above; details: 72 h
[6] = tested on: HepG2; assay: as above; details: 72 h
[7] = tested on: A549-ACE2 infected with SARS-CoV-2; assay: morphology score (similarity to uninfected cells); higher = more like uninfected cells; details: 24 h
[8] = tested on: A549-ACE2 infected with SARS-CoV-2; assay: cell count relative to DMSO; higher = less toxic; details: 24 h
[9] = tested on: A549-ACE2; assay: drug-induced phospholipidosis relative to tamoxifen; higher = more phospholipidosis
[10] = tested on: A549-ACE2 infected with SARS-CoV-2; assay: SARS-CoV-2 infection rate relative to DMSO; higher = more infection; details: 24 h
[11] = tested on: U2OS; assay: drug sensitivity score (DSS) for viability; higher = more toxic; extreme values may be limits of the assay; details: 72 h
[12] = tested on: Vero E6; assay: as above; details: 72 h
[13] = tested on: Calu-3; assay: as above; details: 72 h
[14] = tested on: Caco-2; assay: as above; details: 72 h
[15] = tested on: HepG2; assay: as above; details: 72 h
[16] = tested on: U2OS; assay: relative viability EC50 (midpoint between 100% and the lowest measured viability); higher = less toxic; details: 72 h
[17] = tested on: Vero E6; assay: as above; details: 72 h
[18] = tested on: Calu-3; assay: as above; details: 72 h
[19] = tested on: Caco-2; assay: as above; details: 72 h
[20] = tested on: HepG2; assay: as above; details: 72 h

COc1cccc(CCc2ccccc2OCC[C@@H]2C[C@@H](O)CN2C)c1
Details	SARS-CoV-2 infection rate [%]	cell count [%]	cell viability [%]	morphology score	phospholipidosis EC50 [µM]
[1], 24 h	–	–	–	–	4.19
[1], 48 h	–	–	–	–	6.86
[1], 72 h	–	–	–	–	13.6
[2], 1 nM	–	–	101	–	–
[2], 10 nM	–	–	98.4	–	–
[2], 100 nM	–	–	100	–	–
[2], 1000 nM	–	–	98.3	–	–
[2], 10000 nM	–	–	92.9	–	–
[3], 1 nM	–	–	105	–	–
[3], 10 nM	–	–	102	–	–
[3], 100 nM	–	–	97.5	–	–
[3], 1000 nM	–	–	98.8	–	–
[3], 10000 nM	–	–	84.9	–	–
[4], 1 nM	–	–	101	–	–
[4], 10 nM	–	–	92.9	–	–
[4], 100 nM	–	–	97.2	–	–
[4], 1000 nM	–	–	91.6	–	–
[4], 10000 nM	–	–	80.2	–	–
[5], 1 nM	–	–	96.1	–	–
[5], 10 nM	–	–	97.4	–	–
[5], 100 nM	–	–	104	–	–
[5], 1000 nM	–	–	85.9	–	–
[5], 10000 nM	–	–	90	–	–
[6], 1 nM	–	–	86.5	–	–
[6], 10 nM	–	–	91.3	–	–
[6], 100 nM	–	–	85.7	–	–
[6], 1000 nM	–	–	96.8	–	–
[6], 10000 nM	–	–	74.2	–	–
[7], 0.3 µM	–	–	–	-0.09	–
[7], 3 µM	–	–	–	0.68	–
[7], 10 µM	–	–	–	0.87	–
[7], 30 µM	–	–	–	0.46	–
[8], 0.3 µM	–	97	–	–	–
[8], 3 µM	–	111	–	–	–
[8], 10 µM	–	119	–	–	–
[8], 30 µM	–	99	–	–	–
[10], 0.3 µM	105	–	–	–	–
[10], 3 µM	62	–	–	–	–
[10], 10 µM	22	–	–	–	–
[10], 30 µM	20	–	–	–	–

drug-induced phospholipidosis [%], [9]
Details	0.3 µM	0.833333 µM	3.33333 µM	6.66667 µM	10 µM	30 µM
24 h	0.95	6.59	62.7	89.3	95.1	128
48 h	5.49	6.45	45.9	81.8	98.6	139
72 h	4.74	4.21	42.1	79.5	98.4	166

Details	drug sensitivity score	relative viability EC50 [µM]
[11]	0	–
[12]	0.3	–
[13]	0.9	–
[14]	1	–
[15]	0	–
[16]	–	> 10
[17]	–	> 10
[18]	–	> 10
[19]	–	> 10
[20]	–	> 10

O=C(Nc1ccc(-c2ccncc2)cc1)N[C@H](CO)c1ccccc1
Details	SARS-CoV-2 infection rate, [10] [%]	cell count, [8] [%]	cell viability, [2] [%]	cell viability, [3] [%]	cell viability, [5] [%]	cell viability, [6] [%]	morphology score, [7]
1 nM	–	–	98.6	97	99.4	96.7	–
10 nM	–	–	96.3	98.2	98.6	94.7	–
100 nM	–	–	99.2	98	96.1	105	–
0.1 µM	98	105	–	–	–	–	0.27
0.3 µM	101	112	–	–	–	–	0.23
1000 nM	–	–	97.5	94.2	95.3	102	–
1 µM	94	106	–	–	–	–	0.26
3 µM	110	91	–	–	–	–	-0.17
10000 nM	–	–	94.7	77	96.4	84.8	–

drug-induced phospholipidosis [%], [9]
Details	0.3 µM	0.833333 µM	3.33333 µM	6.66667 µM	10 µM	30 µM
24 h	3.51	2.55	2.66	3.66	1.91	3.72
48 h	2.8	0.36	-0.35	3.11	1.09	6.28
72 h	2.59	-2.02	-0.767	-0.334	-0.186	6.14

Details	drug sensitivity score	relative viability EC50 [µM]
[11]	0	–
[12]	1.6	–
[14]	0	–
[15]	0.2	–
[16]	–	> 10
[17]	–	> 10
[19]	–	> 10
[20]	–	> 10

Reference: the supplement of paper PMC13380429
